Results as given in ChEMBL document CHEMBL2151011, “Substituted pyridines as sodium channel blockers: patent highlight” (ACS Med Chem Lett, 2012).

Legend:
[1] = molecular target: T1, Sodium channel protein type 9 subunit alpha (Homo sapiens, UniProt Q15858); assay: Blockade of Nav1.7 by electrophysiological patch clamp assay
[2] = molecular target: T1, Sodium channel protein type 9 subunit alpha; assay: Blockade of Nav1.7 by FLIPR TETRA sodium dye assay in presence of KCl salt

T1 sequence (Q15858 whole entry): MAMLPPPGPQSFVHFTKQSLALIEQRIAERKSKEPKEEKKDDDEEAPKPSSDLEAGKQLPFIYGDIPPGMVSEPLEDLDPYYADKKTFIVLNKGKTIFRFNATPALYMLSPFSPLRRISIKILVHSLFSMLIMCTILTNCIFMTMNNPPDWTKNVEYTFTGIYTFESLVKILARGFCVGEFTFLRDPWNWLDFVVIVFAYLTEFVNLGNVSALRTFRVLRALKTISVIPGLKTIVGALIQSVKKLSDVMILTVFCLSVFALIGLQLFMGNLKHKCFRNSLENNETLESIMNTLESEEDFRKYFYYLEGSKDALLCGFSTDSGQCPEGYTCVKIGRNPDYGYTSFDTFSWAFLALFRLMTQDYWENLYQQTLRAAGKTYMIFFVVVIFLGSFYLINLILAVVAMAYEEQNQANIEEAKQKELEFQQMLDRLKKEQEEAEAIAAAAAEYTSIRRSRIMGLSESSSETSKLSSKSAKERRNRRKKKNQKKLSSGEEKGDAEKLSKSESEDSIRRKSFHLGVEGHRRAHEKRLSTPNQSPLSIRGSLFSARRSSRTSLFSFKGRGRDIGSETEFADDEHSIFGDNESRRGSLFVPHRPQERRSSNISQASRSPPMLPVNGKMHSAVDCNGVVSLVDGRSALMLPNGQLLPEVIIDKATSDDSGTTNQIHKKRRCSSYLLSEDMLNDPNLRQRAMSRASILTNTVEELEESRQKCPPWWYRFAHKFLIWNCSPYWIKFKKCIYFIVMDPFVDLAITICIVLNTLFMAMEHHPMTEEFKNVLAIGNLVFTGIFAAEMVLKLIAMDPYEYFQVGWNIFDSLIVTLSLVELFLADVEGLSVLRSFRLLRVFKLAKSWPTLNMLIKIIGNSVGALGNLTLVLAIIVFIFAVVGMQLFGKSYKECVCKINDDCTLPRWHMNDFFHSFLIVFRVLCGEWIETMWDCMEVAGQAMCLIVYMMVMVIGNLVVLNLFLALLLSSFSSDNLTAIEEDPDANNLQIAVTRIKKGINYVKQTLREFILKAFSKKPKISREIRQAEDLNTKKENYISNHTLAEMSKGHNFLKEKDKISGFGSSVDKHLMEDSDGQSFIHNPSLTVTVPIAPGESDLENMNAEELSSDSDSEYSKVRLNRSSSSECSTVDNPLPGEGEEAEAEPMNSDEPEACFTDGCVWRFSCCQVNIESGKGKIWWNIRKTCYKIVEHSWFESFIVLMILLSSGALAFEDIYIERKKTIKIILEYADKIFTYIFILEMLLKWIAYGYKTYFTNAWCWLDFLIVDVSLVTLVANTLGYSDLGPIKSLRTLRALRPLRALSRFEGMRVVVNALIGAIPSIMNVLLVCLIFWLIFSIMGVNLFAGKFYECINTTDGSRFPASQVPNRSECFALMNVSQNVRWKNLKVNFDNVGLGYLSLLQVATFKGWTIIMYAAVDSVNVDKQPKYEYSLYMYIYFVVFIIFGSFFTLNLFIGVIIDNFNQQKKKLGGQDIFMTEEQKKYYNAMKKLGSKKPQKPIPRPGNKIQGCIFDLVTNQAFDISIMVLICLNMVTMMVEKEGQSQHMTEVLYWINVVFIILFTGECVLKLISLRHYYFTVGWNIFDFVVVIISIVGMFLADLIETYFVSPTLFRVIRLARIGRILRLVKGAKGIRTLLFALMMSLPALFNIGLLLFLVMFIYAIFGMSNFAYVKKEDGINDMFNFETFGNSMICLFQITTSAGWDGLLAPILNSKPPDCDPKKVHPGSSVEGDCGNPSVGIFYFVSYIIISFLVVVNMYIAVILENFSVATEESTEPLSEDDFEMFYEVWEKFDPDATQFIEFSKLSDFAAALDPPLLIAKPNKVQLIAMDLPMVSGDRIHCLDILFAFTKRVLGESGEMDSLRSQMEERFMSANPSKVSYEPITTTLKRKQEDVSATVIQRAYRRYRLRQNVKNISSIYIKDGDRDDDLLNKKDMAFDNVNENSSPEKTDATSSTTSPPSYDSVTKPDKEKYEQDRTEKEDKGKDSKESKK

Ki [1]: 195 nM | IC50 [2]: 140 nM
Compound: O=C(N[C@@H](CO)C(=O)Nc1cccc(-c2ccc(Oc3ccc(F)cc3)cc2)n1)c1ccccn1
